Values of other authors, collected in US7208523B2, “Alanine- and glycine-containing therapeutic agent for hepatitis” (Ajinomoto Co., Inc., priority 2000, dated 2007).

Details: oral administration of glycine or alanine alone; galactosamine intraabdominal

Row | Compound | inhibition of hepatopathy caused by galactosamine
1 | C[C@H](N)C(=O)O [alanine] | inhibits
2 | NCC(=O)O [glycine] | inhibits
